Test results as given in US8809583B2, “Methods for producing isomers of muconic acid and muconate salts” (Amyris, Inc., priority 2010, dated 2014).
Blank lines part the entries; values can stand above or below the compound they belong to.

Tests used:
Type in all cases: physicochemical
[1] = Isomerization of cis,cis-muconate to cis,trans-muconate in crude fermentation broth, monitored by 1H NMR and HPLC; settings: for time until isomerization cis,cis to cis,trans is essentially complete: pH 4, 60° C.
Procedure: cis,cis-muconate produced from a renewable carbon source through biocatalytic conversion (e.g., according to the method of Examples 7 and 7A) was provided, and the fermentation culture including the cis,cis-muconate was warmed to 60° C. The warmed fermentation culture was adjusted to pH 4 by adding 2 N sulfuric acid over 0.5 h. The acidified culture was allowed to react for 3.5 h.
The reaction was monitored by ^1H NMR and HPLC equipped with the Prevail Organic Acid Column (150 mm×4.6 mm), to determine the endpoint of the reaction. […] In general, such isomerization reactions can be monitored to determine appropriate reaction parameters (e.g., time, temperature, pH, and the like).

[2] = Solubility of muconic acid isomers in organic solvents
[3] = Solvent extraction of slurry of cis,trans-muconic acid in M9 salts (simulated broth) acidified to pH 3.0, precipitate left in; settings: 63.34 g/L incl. precipitate
Procedure: (§1) To individual 50 mL conical centrifuge tubes each containing 15 mL of the filtered broth were added 15 mL of each solvent listed in tables below. Each tube was agitated for two minutes and the organic and aqueous phases allowed to separate. The aqueous layer was separated from the solvent layer by pipette and placed into a new 50 mL conical tube. Both the aqueous and solvent phases of each extraction were analyzed for muconic acid using HPLC. A second extraction was performed on each of the separated aqueous layers using fresh solvent. Again the samples were agitated, allowed to settle and the aqueous and organic phases were separated and analyzed.
To test the ability of solvent extraction to recover cis,trans-muconic acid after acidification to sufficiently low levels that significant amounts of the cis,trans-muconic acid has precipitated, a solution of cis,trans-muconic acid in a solution of M9 salts was used to simulate a fermentation broth. 15 grams of cis,trans-muconic acid were added to 250 mL of M9 salts giving an approximate titer of 60 g/L. This was achieved by raising the pH to 7.0 using sodium hydroxide. The broth was then acidified with sulfuric acid to pH 3.0 causing the cis,trans-muconic acid to precipitate. The solid precipitate was left in the acidified mixture, and the entire slurry was extracted twice with solvent as described above.

[4] = Solvent extraction of cis,trans-muconic acid from acidified, filtered fermentation broth (HPLC of both phases); settings: pH about 3
Procedure: Fermentation broth was obtained that had been isomerized to cis,trans-muconic acid, and was acidified to a pH of about 3. The solid cis,trans-muconic acid was removed by filtration to leave acidified fermentation broth containing approximately 5 to 10 grams per Liter of cis,trans-muconic acid.
as §1
Different broth samples with different amounts of cis,trans-muconic acid were used to generate the results in each table.

[5] = Precipitation of cis,trans-muconate from clarified broth at different pH values
Excerpt: Following isomerization (e.g., as in Example 8), broth containing cis,trans-muconic acid was cooled to approximately ambient temperature and the cells, cell debris and precipitated solids were removed from the culture broth by centrifugation. Alternatively, such solids can be removed by filtration (e.g., through a 100 kD SARTOCON® Slice cassette). The cell-free broth was then clarified by filtration (e.g., through a 10 kD SARTOCON® Slice cassette), to remove proteins. […]

[6] = broth 4.86 g/L, cyclohexanone, first line (extraction number not given)
[7] = broth 4.86 g/L, cyclohexanone, second line (extraction number not given)
[8] = broth 4.86 g/L, ethyl hexanol, first line (extraction number not given)
[9] = broth 4.86 g/L, ethyl hexanol, second line (extraction number not given)
[10] = broth 4.86 g/L, isoalcohol, first line (extraction number not given)
[11] = broth 4.86 g/L, isoalcohol, second line (extraction number not given)
[12] = broth 4.86 g/L, xylene, first line (extraction number not given)
[13] = broth 4.86 g/L, xylene, second line (extraction number not given)
[14] = broth 9.82 g/L, 1-butanol, extraction 1
[15] = broth 9.82 g/L, 1-butanol, extraction 2
[16] = broth 9.82 g/L, Octanol, extraction 1
[17] = broth 9.82 g/L, Octanol, extraction 2
[18] = broth 9.82 g/L, tBME, extraction 1
[19] = broth 9.82 g/L, tBME, extraction 2
[20] = broth 10.69 g/L, 1-pentanol, extraction 1
[21] = broth 10.69 g/L, 1-pentanol, extraction 2
[22] = broth 10.69 g/L, MEK, extraction 1
[23] = broth 10.69 g/L, MEK, extraction 2
[24] = broth 10.69 g/L, MeTHF, extraction 1
[25] = broth 10.69 g/L, MeTHF, extraction 2
[26] = broth 10.69 g/L, cyclohexane, extraction 1
[27] = broth 10.69 g/L, cyclohexane, extraction 2
[28] = broth 10.69 g/L, cylcohexanol, extraction 1
[29] = broth 10.69 g/L, cylcohexanol, extraction 2
[30] = broth 10.69 g/L, decalin, extraction 1
[31] = broth 10.69 g/L, decalin, extraction 2
[32] = broth 10.69 g/L, n-butyl acetate, extraction 1
[33] = broth 10.69 g/L, n-butyl acetate, extraction 2

- time until isomerization cis,cis to cis,trans is essentially complete ([1]; HPLC traces and time course): about 1.25 hours
- time until isomerization cis,cis to cis,trans is essentially complete ([1]; crude fermentation broth, 1H NMR): about 1.25 hours
- isomerization from cis,cis to cis,trans-muconic acid ([1]; pH 7, HPLC traces and time course): essentially no isomerization
- isomerization from cis,cis to cis,trans muconic acid ([1]; pH 7, crude fermentation broth, 0 to 3.25 hours, 1H NMR): essentially no isomerization
SMILES: O=C(O)/C=C\C=C/C(=O)O [cis,cis-muconate, cis,cis-muconic acid]

- Muconic acid in aqueous phase ([3]; MeTHF, extraction 1): 2.03 g/L
- Muconic acid in organic phase ([3]; MeTHF, extraction 1): 47.10 g/L
- Partition coefficient ([3]; MeTHF, extraction 1): 23.20
- Muconic acid in aqueous phase ([3]; MeTHF, extraction 2): 0.11 g/L
- Muconic acid in organic phase ([3]; MeTHF, extraction 2): 1.64 g/L
- Partition coefficient ([3]; MeTHF, extraction 2): 14.91
- Muconic acid in aqueous phase ([3]; cyclohexanol, extraction 1): 10.53 g/L
- Muconic acid in organic phase ([3]; cyclohexanol, extraction 1): 51.37 g/L
- Partition coefficient ([3]; cyclohexanol, extraction 1): 4.88
- Muconic acid in aqueous phase ([3]; cyclohexanol, extraction 2): 2.71 g/L
- Muconic acid in organic phase ([3]; cyclohexanol, extraction 2): 3.75 g/L
- Partition coefficient ([3]; cyclohexanol, extraction 2): 1.38
- Muconic acid in aqueous phase ([3]; cyclohexanone, extraction 1): 2.92 g/L
- Muconic acid in organic phase ([3]; cyclohexanone, extraction 1): 51.05 g/L
- Partition coefficient ([3]; cyclohexanone, extraction 1): 17.48
- Muconic acid in aqueous phase ([3]; cylcohexanone, extraction 2): 0.20 g/L
- Muconic acid in organic phase ([3]; cylcohexanone, extraction 2): 2.10 g/L
- Partition coefficient ([3]; cylcohexanone, extraction 2): 10.50
- Muconic acid in aqueous phase ([3]; tBME, extraction 1): 54.00 g/L
- Muconic acid in organic phase ([3]; tBME, extraction 1): 0.00 g/L
- Partition coefficient ([3]; tBME, extraction 1): 0.00
- Muconic acid in aqueous phase ([3]; tBME, extraction 2): 59.88 g/L
- Muconic acid in organic phase ([3]; tBME, extraction 2): 0.00 g/L
- Partition coefficient ([3]; tBME, extraction 2): 0.00
- Muconic acid in aqueous phase [4, 6]: 0.21 g/L
- Muconic acid in organic phase [4, 6]: 6.11 g/L
- Partition coefficient [4, 6]: 29.10
- Muconic acid in aqueous phase [4, 7]: 0.23 g/L
- Muconic acid in organic phase [4, 7]: 0.00 g/L
- Partition coefficient [4, 7]: large
- Muconic acid in aqueous phase [4, 8]: 0.89 g/L
- Muconic acid in organic phase [4, 8]: 3.83 g/L
- Partition coefficient [4, 8]: 4.30
- Muconic acid in aqueous phase [4, 9]: 0.20 g/L
- Muconic acid in organic phase [4, 9]: 0.79 g/L
- Partition coefficient [4, 9]: 3.95
- Muconic acid in aqueous phase [4, 10]: 0.63 g/L
- Muconic acid in organic phase [4, 10]: 4.87 g/L
- Partition coefficient [4, 10]: 7.73
- Muconic acid in aqueous phase [4, 11]: 0.04 g/L
- Muconic acid in organic phase [4, 11]: 0.49 g/L
- Partition coefficient [4, 11]: 12.25
- Muconic acid in aqueous phase [4, 12]: 5.15 g/L
- Muconic acid in organic phase [4, 12]: 0.00 g/L
- Partition coefficient [4, 12]: 0.00
- Muconic acid in aqueous phase [4, 13]: 4.82 g/L
- Muconic acid in organic phase [4, 13]: 0.00 g/L
- Partition coefficient [4, 13]: 0.00
- Muconic acid in aqueous phase [4, 14]: 1.10 g/L
- Muconic acid in organic phase [4, 14]: 6.26 g/L
- Partition coefficient [4, 14]: 5.69
- Muconic acid in aqueous phase [4, 15]: 0.27 g/L
- Muconic acid in organic phase [4, 15]: 0.51 g/L
- Partition coefficient [4, 15]: 1.89
- Muconic acid in aqueous phase [4, 16]: 2.19 g/L
- Muconic acid in organic phase [4, 16]: 5.40 g/L
- Partition coefficient [4, 16]: 2.47
- Muconic acid in aqueous phase [4, 17]: 1.52 g/L
- Muconic acid in organic phase [4, 17]: 0.53 g/L
- Partition coefficient [4, 17]: 0.35
- Muconic acid in aqueous phase [4, 18]: 2.05 g/L
- Muconic acid in organic phase [4, 18]: 6.53 g/L
- Partition coefficient [4, 18]: 3.19
- Muconic acid in aqueous phase [4, 19]: 0.72 g/L
- Muconic acid in organic phase [4, 19]: 1.23 g/L
- Partition coefficient [4, 19]: 1.71
- Muconic acid in aqueous phase [4, 20]: 1.29 g/L
- Muconic acid in organic phase [4, 20]: 8.29 g/L
- Partition coefficient [4, 20]: 6.43
- Muconic acid in aqueous phase [4, 21]: 0.30 g/L
- Muconic acid in organic phase [4, 21]: 1.06 g/L
- Partition coefficient [4, 21]: 3.53
- Muconic acid in aqueous phase [4, 22]: 2.63 g/L
- Muconic acid in organic phase [4, 22]: 9.65 g/L
- Partition coefficient [4, 22]: 3.67
- Muconic acid in aqueous phase [4, 23]: 0.84 g/L
- Muconic acid in organic phase [4, 23]: 1.99 g/L
- Partition coefficient [4, 23]: 2.37
- Muconic acid in aqueous phase [4, 24]: 0.65 g/L
- Muconic acid in organic phase [4, 24]: 7.40 g/L
- Partition coefficient [4, 24]: 11.38
- Muconic acid in aqueous phase [4, 25]: 0.00 g/L
- Muconic acid in organic phase [4, 25]: 0.51 g/L
- Partition coefficient [4, 25]: large
- Muconic acid in aqueous phase [4, 26]: 10.47 g/L
- Muconic acid in organic phase [4, 26]: 0.00 g/L
- Partition coefficient [4, 26]: 0.00
- Muconic acid in aqueous phase [4, 27]: 10.20 g/L
- Muconic acid in organic phase [4, 27]: 0.00 g/L
- Partition coefficient [4, 27]: 0.00
- Muconic acid in aqueous phase [4, 28]: 0.98 g/L
- Muconic acid in organic phase [4, 28]: 8.62 g/L
- Partition coefficient [4, 28]: 8.80
- Muconic acid in aqueous phase [4, 29]: 0.28 g/L
- Muconic acid in organic phase [4, 29]: 1.05 g/L
- Partition coefficient [4, 29]: 3.75
- Muconic acid in aqueous phase [4, 30]: 10.25 g/L
- Muconic acid in organic phase [4, 30]: 0.00 g/L
- Partition coefficient [4, 30]: 0.00
- Muconic acid in aqueous phase [4, 31]: 12.99 g/L
- Muconic acid in organic phase [4, 31]: 0.00 g/L
- Partition coefficient [4, 31]: 0.00
- Muconic acid in aqueous phase [4, 32]: 3.96 g/L
- Muconic acid in organic phase [4, 32]: 6.78 g/L
- Partition coefficient [4, 32]: 1.71
- Muconic acid in aqueous phase [4, 33]: 2.02 g/L
- Muconic acid in organic phase [4, 33]: 3.55 g/L
- Partition coefficient [4, 33]: 1.76
- % ctMA in filtrate ([5]; pH 2.0): 18 weight %
- % ctMA in filtrate ([5]; pH 2.5): 18 weight %
- ctMA in precipitate ([5]; pH 2.5): 64 weight %
- % ctMA in filtrate ([5]; pH 3.0): 22 weight %
- ctMA in precipitate ([5]; pH 3.0): 61 weight %
- cis,trans-muconic acid originally in the solution that precipitates ([5]; pH 3, Table 2): about 60%
- cis,trans-muconic acid remaining in solution ([5]; pH 3, Table 2): approximately 40%
- % ctMA in filtrate ([5]; pH 3.5): 26 weight %
- ctMA in precipitate ([5]; pH 3.5): 58 weight %
- % ctMA in filtrate ([5]; pH 4.0): 75 weight %
- ctMA in precipitate ([5]; pH 4.0): 22 weight %
- % ctMA in filtrate ([5]; pH 4.7): 100 weight %
- ctMA in precipitate ([5]; pH 4.7): 0 weight %
SMILES: O=C(O)/C=C\C=C\C(=O)O [cis,trans-muconic acid]
- solubility in organic solvents compared with the other isomers [2]: more soluble in organic solvents than either of the cis,cis or trans,trans isomers
